# Tests used:
# ubiquitinated proteins = assay: Accumulation of ubiquitinated proteins (α-Ub immunoblot of total protein); assay type: in vivo, Arabidopsis thaliana; conditions: WT; absent in npr1-2; SA for 6 hr
# Description: (§1) Protein analysis and IP. Recombinant protein analysis was performed using transient expression in N. benthamiana, or stable over-expression in transgenic Arabidopsis, or expression in E. coli. Total protein extraction from plants was performed by homogenizing leaf tissue in the plant extraction buffer [50 mM Tris-HCl (pH 7.5), 150 mM NaCl, 5 mM EDTA, 0.2% Triton X-100, 0.2% Nonidet P-40] supplemented with 1 mM PMSF, 100 μM MG132, and EDTA-free protease inhibitor cocktail (Roche). For ubiquitinated protein analysis in plants, 100 μM of DUB (deubiquitinase) inhibitor (LifeSensors) and 10 mM NEM were added. Next, the lysates were cleared by centrifugation at 14,000 rpm for 15 min followed by filtering through a 0.2 μm filter. […] Pull-downs or IP experiments were done on total protein extracts by incubating protein samples in the lysis buffer overnight with indicated affinity tag or antibody conjugated to agarose or magnetic beads: GFP-trap agarose beads (Chromotek) for GFP fusions; RFP-trap agarose beads (Chromotek) for mCherry fusions; anti-HA magnetic beads (ThermoFisher) for HA tag fusions; anti-DYKDDDDK coupled magnetic agarose (ThermoFisher) for FLAG tag fusions; and glutathione magnetic agarose (ThermoFisher) for GST fusions. Unless otherwise indicated, after pull-down/IP, beads were washed 3 times and proteins were eluted by boiling in the 2×SDS sample buffer. […]
# endogenous NPR1 = molecular target: T1, endogenous NPR1 (Arabidopsis thaliana, UniProt P93002); assay: Cell fractionation of endogenous NPR1 (cytoplasmic/nuclear); assay type: in vivo; conditions: 6 hr, Col-0
# T1 construct: from tissue; host or cells: leaf tissue of three-week-old Arabidopsis Col-0 plants
# T1 sequence (P93002 1-593): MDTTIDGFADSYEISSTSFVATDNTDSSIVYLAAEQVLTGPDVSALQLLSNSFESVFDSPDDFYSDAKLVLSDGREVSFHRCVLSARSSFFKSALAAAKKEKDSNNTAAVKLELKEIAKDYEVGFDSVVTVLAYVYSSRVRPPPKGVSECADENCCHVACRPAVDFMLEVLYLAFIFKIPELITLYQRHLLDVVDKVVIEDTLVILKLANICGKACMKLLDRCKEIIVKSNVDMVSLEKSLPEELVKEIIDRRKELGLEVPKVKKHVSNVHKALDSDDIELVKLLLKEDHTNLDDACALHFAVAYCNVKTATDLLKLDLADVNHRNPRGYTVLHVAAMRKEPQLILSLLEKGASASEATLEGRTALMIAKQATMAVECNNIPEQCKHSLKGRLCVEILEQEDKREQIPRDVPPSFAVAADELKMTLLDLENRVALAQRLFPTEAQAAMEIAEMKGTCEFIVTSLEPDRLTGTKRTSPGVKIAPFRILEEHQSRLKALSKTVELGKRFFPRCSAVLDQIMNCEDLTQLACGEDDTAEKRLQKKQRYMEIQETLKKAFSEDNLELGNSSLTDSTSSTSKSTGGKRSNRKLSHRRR
# Description: Cell fractionation. Cytoplasmic and nuclear proteins were sequentially isolated from three-week-old Arabidopsis (Col-0) plants using 1 g of leaf tissue and a sucrose gradient protocol described previously with modifications. Tissue was homogenized in lysis buffer (20 mM Tris-HCl, pH 7.5, 20 mM KCl, 2 mM EDTA, 2.5 mM MgCl2, 25% glycerol, 0.25 M Sucrose) supplemented with 100 μM MG132, EDTA-free protease inhibitor cocktail, 1 mM PMSF and 5 mM DTT. The lysate was filtered through a 70 μm filter and centrifuged at 20,000 g for 15 min at 4° C., and the supernatant was collected (cytoplasmic fraction). The pellet was washed four times with 5 ml of NRBT buffer (20 mM Tris-HCl, pH 7.4, 25% glycerol, 2.5 mM MgCl2, and 0.2% Triton X-100). After the last wash, the pellet was resuspended with 500 μl of NRB2 buffer (20 mM Tris-HCl, pH 7.5, 0.25 M Sucrose, 10 mM MgCl2, 0.5% Triton X-100) supplemented with protease inhibitor cocktail and 5 mM BME. The obtained suspension was layered at 1:1 on top of the NRB3 buffer (20 mM Tris-HCl, pH 7.5, 1.7 M Sucrose, 10 mM MgCl2, 0.5% Triton X-100) supplemented with protease inhibitor cocktail and 5 mM BME, centrifuged at 16,000 g for 45 min at 4° C. The top layer was removed and the pellet was resuspended with 200 μl of plant extraction buffer containing 1% Triton X-100, protease inhibitor cocktail and 5 mM BME (nuclear fraction). […]
# EDS1 = assay: Stability (cycloheximide) and ubiquitination of EDS1; assay type: in vivo, Arabidopsis thaliana; conditions: WT
# Description: (§2) Chemical treatment, pathogen infection and cell death assays. […] At 2 days, the bacterial colonies were scored.
# as §1, with “fusions.” for “fusions. Unless otherwise indicated, after pull-down/IP, beads were washed 3 times and proteins were eluted by boiling in the 2×SDS sample buffer.”
# WRKY70-GFP = assay: Stability and ubiquitination of WRKY70-GFP; assay type: in vivo, Arabidopsis thaliana
# Description: as §2
# as §1, with “fusions.” for “fusions. Unless otherwise indicated, after pull-down/IP, beads were washed 3 times and proteins were eluted by boiling in the 2×SDS sample buffer.”
# Psm ES4326/AvrRpt2 = assay: Bacterial growth assay in infected leaves; assay type: in vivo, Arabidopsis thaliana; conditions: SA pretreatment at 0.5 and 1 mM; WT plants, not in npr1-2 mutant
# Excerpt: as §2
# ETI activated by RPS4 = assay: Cell death after Pf Pf0-1/AvrRps4 inoculation (conductivity assay); assay type: in vivo, Arabidopsis thaliana; conditions: SA/NPR1-mediated
# Excerpt: as §2
smiles,measurement,setting,value
"O=C(O)c1ccccc1O [SA, salicylic acid]",accumulation of ubiquitinated proteins,ubiquitinated proteins,concentration-dependent accumulation of ubiquitinated proteins
same,subcellular accumulation of endogenous NPR1,endogenous NPR1; 1 mM SA,more NPR1 accumulated in the cytoplasm
same,subcellular accumulation of endogenous NPR1,endogenous NPR1; 0.1 and 0.5 mM SA,increased nuclear accumulation
same,ubiquitination of EDS1,"EDS1; 1 mM SA for 6 hr, not in npr1-2 nor eds1-2",increased SA-mediated ubiquitination of EDS1
same,amount of EDS1 in the absence of new protein synthesis,"EDS1; 1 mM SA 4 hr then 100 μM cycloheximide, 16 hours co-incubation, unchanged in npr1-2",significantly decreased
same,ubiquitination of WRKY70-GFP,"WRKY70-GFP; 1 mM SA for 24 h, WT, not npr1-2",increased ubiquitination of WRKY70-GFP
same,WRKY70-GFP protein level,"WRKY70-GFP; 1 mM SA for 24 hr, NPR1- and proteasome-dependent",reduced
same,pathogen growth,Psm ES4326/AvrRpt2,increased pathogen growth
same,ETI activated by RPS4 (effector AvrRps4),ETI activated by RPS4,inhibition
